The subject of assay [1] is Acinetobacter baumannii. Description: Inhibition of beta-lactamase in Acinetobacter baumannii CL 6188 assessed as drug concentration required to reduce imipenem MIC to 4 ug/ml.
The nature of assay [2]: Inhibition of beta-lactamase AmpC in Acinetobacter baumannii assessed as inhibition of hydrolysis of nitrocefin.
The subject of assay [3] is Klebsiella pneumoniae. Description: Inhibition of beta-lactamase in Klebsiella pneumoniae CL 6569 assessed as drug concentration required to reduce imipenem MIC to 4 ug/ml.
Assay [4] deals with Pseudomonas aeruginosa. The assay can be described thus: Inhibition of beta-lactamase in Pseudomonas aeruginosa CL 5701 assessed as drug concentration required to reduce imipenem MIC to 4 ug/ml.
Assay [5] can be described thus: Inhibition of beta-lactamase AmpC in Pseudomonas aeruginosa assessed as inhibition of hydrolysis of nitrocefin.
The nature of assay [6]: Inhibition of beta-lactamase KPC-2 in Klebsiella pneumoniae assessed as inhibition of hydrolysis of nitrocefin.
The target in assay [7] is Beta-lactamase (Acinetobacter baumannii, UniProt Q8RLA6). Description: Inhibition of beta-lactamase Oxa40 in Acinetobacter baumannii assessed as inhibition of hydrolysis of nitrocefin.
Sequence of Beta-lactamase (Q8RLA6 whole entry): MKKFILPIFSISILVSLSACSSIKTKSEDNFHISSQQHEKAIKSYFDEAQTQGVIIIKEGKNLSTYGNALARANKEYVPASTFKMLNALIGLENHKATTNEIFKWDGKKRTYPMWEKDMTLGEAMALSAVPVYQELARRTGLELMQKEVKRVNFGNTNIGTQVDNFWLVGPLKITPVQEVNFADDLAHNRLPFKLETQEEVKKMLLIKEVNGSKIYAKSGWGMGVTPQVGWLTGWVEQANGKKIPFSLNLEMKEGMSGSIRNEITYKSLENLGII

Results on 18 compounds are retold here after ChEMBL document CHEMBL3112543, “Discovery of MK-7655, a β-lactamase inhibitor for combination with Primaxin®” (Bioorg Med Chem Lett, 2014).

Where only a bound is given, the exact number is not on record here.

Consider `O=C(NC1CCS(=O)(=O)CC1)[C@@H]1CC[C@@H]2CN1C(=O)N2OS(=O)(=O)O`, for which the INH was above 100 µM in assay [1], 50 µM in assay [3] and 50 µM in assay [4]. In addition, the IC50 (in general, the concentration that inhibits the measured activity by half) in assay [2] was 470 nM; in assay [5], 9.5 nM; in assay [6], 150 nM; in assay [7] it was above 50000 nM.
For `O=C(N[C@H]1CCCNCC1)[C@@H]1CC[C@@H]2CN1C(=O)N2OS(=O)(=O)O`, the figures for the INH in assay [1], in assay [3] and in assay [4] were above 100 µM, 12.5 µM and 6.25 µM, respectively. In addition, the IC50 is 1700 nM in assay [2], 69 nM in assay [5], 245 nM in assay [6] and above 50000 nM in assay [7].
Turning to `O=C(Nc1ccncc1)[C@@H]1CC[C@@H]2CN1C(=O)N2OS(=O)(=O)O`, the INH in assay [1] is above 100 µM; in assay [3], 50 µM; in assay [4], 25 µM. For the same compound, the IC50 in assay [2] was found to be 1050 nM; in assay [5], 6 nM; in assay [7], 20000 nM.
On to `O=C(NC1CCNCC1)[C@@H]1CC[C@@H]2CN1C(=O)N2OS(=O)(=O)O` [RELEBACTAM], for which the figures for the INH in assay [1], in assay [3] and in assay [4] were above 100 µM, 12.5 µM and 4.7 µM, respectively. The values for the half-inhibitory concentration (IC50) in assay [2], in assay [5] and in assay [7] were 4100 nM, 465 nM and above 50000 nM, respectively.
`O=C(Nc1ccccn1)[C@@H]1CC[C@@H]2CN1C(=O)N2OS(=O)(=O)O`: the INH in assay [1] is above 100 µM; in assay [3] it was 100 µM; in assay [4] it was 12.5 µM. Also, the half-maximal inhibitory concentration (IC50) was found to be 23 nM in assay [2], 1.2 nM in assay [5], 36 nM in assay [6] and 530 nM in assay [7].
With `O=C(O)c1ccc(NC(=O)[C@@H]2CC[C@@H]3CN2C(=O)N3OS(=O)(=O)O)cc1`, the values for the INH in assay [1], in assay [3] and in assay [4] were above 100 µM, above 100 µM and 50 µM, respectively. Moreover, the IC50 was 460 nM in assay [2], 11 nM in assay [5], 10 nM in assay [6] and 4800 nM in assay [7].
For the compound `C[n+]1ccc(NC(=O)[C@@H]2CC[C@@H]3CN2C(=O)N3OS(=O)(=O)[O-])cc1`, the INH in assay [1] is above 100 µM; in assay [3] it was 25 µM; in assay [4], 25 µM. Besides, the IC50 was 12000 nM in assay [2], 210 nM in assay [5], 260 nM in assay [6] and above 50000 nM in assay [7].
`Nc1cccc(NC(=O)[C@@H]2CC[C@@H]3CN2C(=O)N3OS(=O)(=O)O)n1`: the values for the INH in assay [1], in assay [3] and in assay [4] were above 100 µM, 25 µM and 50 µM, respectively. Also, the IC50 in assay [2] worked out at 100 nM; in assay [5], 8 nM; in assay [6], 11 nM; in assay [7], 360 nM.
As to `O=C(Nc1cccnc1)[C@@H]1CC[C@@H]2CN1C(=O)N2OS(=O)(=O)O`, the values for the INH in assay [1], in assay [3] and in assay [4] were above 100 µM, 50 µM and 100 µM, respectively. Besides, the concentration for half-maximal inhibition (IC50) worked out at 1200 nM in assay [2], 37 nM in assay [5], 42 nM in assay [6] and 20000 nM in assay [7].
For the compound `NCc1ccc(NC(=O)[C@@H]2CC[C@@H]3CN2C(=O)N3OS(=O)(=O)O)nc1`, the values for the INH in assay [1], in assay [3] and in assay [4] were above 100 µM, 12.5 µM and 6.25 µM, respectively. Also, the half-maximal inhibitory concentration (IC50) in assay [2] amounted to 26 nM; in assay [5] it was 3 nM; in assay [6] it was 42 nM; in assay [7], 4400 nM.
For the compound `O=C(N[C@H]1CCNC1)[C@@H]1CC[C@@H]2CN1C(=O)N2OS(=O)(=O)O`, the INH is above 100 µM in assay [1], 6.25 µM in assay [3] and 3.12 µM in assay [4]. Also, the concentration for half-maximal inhibition (IC50) in assay [2] is 5600 nM; in assay [5], 140 nM; in assay [6], 410 nM; in assay [7], above 50000 nM.
As to `CN(C(=O)[C@@H]1CC[C@@H]2CN1C(=O)N2OS(=O)(=O)O)C1CCNCC1`, the INH in assay [1] was above 100 µM; in assay [3] it was 50 µM; in assay [4] it was 25 µM. Also, the half-inhibitory concentration (IC50) in assay [2] is 2100 nM; in assay [5], 290 nM; in assay [6], 2500 nM; in assay [7] it was above 50000 nM.
With `O=C(N[C@@H]1CCCNCC1)[C@@H]1CC[C@@H]2CN1C(=O)N2OS(=O)(=O)O`, the INH is above 100 µM in assay [1], 12.5 µM in assay [3] and 6.25 µM in assay [4]. In addition, the half-maximal inhibitory concentration (IC50) in assay [2] was 1200 nM; in assay [5], 520 nM; in assay [6], 225 nM; in assay [7], above 50000 nM.
Consider `CN1CCC(NC(=O)[C@@H]2CC[C@@H]3CN2C(=O)N3OS(=O)(=O)O)CC1`, for which the INH in assay [1] is above 100 µM; in assay [3] it was 12.5 µM; in assay [4] it was 12.5 µM. In addition, the half-inhibitory concentration (IC50) is 2700 nM in assay [2], 500 nM in assay [5], 240 nM in assay [6] and above 50000 nM in assay [7].
For the compound `O=C(N[C@@H]1CCNC1)[C@@H]1CC[C@@H]2CN1C(=O)N2OS(=O)(=O)O`, the INH in assay [1] is above 100 µM; in assay [3] it was 6.25 µM; in assay [4], 6.25 µM. Moreover, the IC50 in assay [2] was 27000 nM; in assay [5], 1900 nM; in assay [6] it was 260 nM; in assay [7] it was above 50000 nM.
As to `O=C(OC1CCNCC1)[C@@H]1CC[C@@H]2CN1C(=O)N2OS(=O)(=O)O`, the INH in assay [1] was above 100 µM; in assay [3], 6.25 µM; in assay [4], 6.25 µM. Also, the IC50 in assay [2] worked out at 1100 nM; in assay [5] it was 170 nM; in assay [6], 9 nM; in assay [7] it was 13000 nM.
Turning to `O=C(NCC1CCNCC1)[C@@H]1CC[C@@H]2CN1C(=O)N2OS(=O)(=O)O`, the INH in assay [1] was above 100 µM; in assay [3], 6.25 µM; in assay [4], 6.25 µM. Also, the IC50 was 2200 nM in assay [2], 30 nM in assay [5], 77 nM in assay [6] and above 50000 nM in assay [7].
Turning to `N[C@@H](Cc1ccc(NC(=O)[C@@H]2CC[C@@H]3CN2C(=O)N3OS(=O)(=O)O)cc1)C(=O)O`, the INH in assay [1] was above 100 µM; in assay [3], 50 µM; in assay [4], 25 µM. The half-inhibitory concentration (IC50) came out at 1100 nM in assay [2], 11 nM in assay [5], 3 nM in assay [6] and 28000 nM in assay [7].
